# Test results taken from PubChem BioAssay AID342 (DTP/NCI, 2004).
# Test system: Swiss mice, Sarcoma 180 sc, mean tumor weight T/C
# Assay: NCI In Vivo Anticancer Drug Screen. Data for tumor model Sarcoma 180 (subcutaneous) in Swiss mice
# Conditions: endpoint: mean tumor weight, higher = larger tumour
# Outline: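 Transplantable tumors were established in mice, compound was given, then survival or tumor size was recorded. The treated value was divided by the vehicle-control value.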
smiles,measurement,setting,value
CC(C)COC(=O)C1(N)CCCC1,T/C,"dose: 90.0 mg/kg/injection, schedule: Q01DX007 (ip), vehicle: carboxymethylcellulose (CMC)",80 % of control
same,T/C,"dose: 135.0 mg/kg/injection, schedule: Q01DX007 (ip), vehicle: carboxymethylcellulose (CMC)",44 % of control
same,T/C,"dose: 188.0 mg/kg/injection, schedule: Q01DX007 (ip), vehicle: saline",14 % of control
same,T/C,"dose: 202.0 mg/kg/injection, schedule: Q01DX007 (ip), vehicle: carboxymethylcellulose (CMC)",49 % of control
same,T/C,"dose: 303.0 mg/kg/injection, schedule: Q01DX007 (ip), vehicle: carboxymethylcellulose (CMC)",18 % of control
COC(=O)C1C(O)CCC2CN3CCc4c([nH]c5ccccc45)C3CC21 (stereo not drawn),T/C,"dose: 150.0 mg/kg/injection, schedule: Q01DX007 (ip), vehicle: carboxymethylcellulose (CMC)",72 % of control
Nc1nc2ncc(CNc3ccc(C(=O)NC(CCC(=O)O)C(=O)O)cc3)nc2c(=O)[nH]1 (stereo not drawn),T/C,"dose: 6.31 mg/kg/injection, schedule: Q01DX007 (ip), vehicle: carboxymethylcellulose (CMC)",84 % of control
same,T/C,"dose: 12.62 mg/kg/injection, schedule: Q01DX007 (ip), vehicle: carboxymethylcellulose (CMC)",76 % of control
same,T/C,"dose: 25.25 mg/kg/injection, schedule: Q01DX007 (ip), vehicle: carboxymethylcellulose (CMC)",56 % of control
same,T/C,"dose: 50.5 mg/kg/injection, schedule: Q01DX007 (ip), vehicle: carboxymethylcellulose (CMC)",74 % of control
COC(=O)C1=CO[C@H](C)[C@@H]2CN3CCc4c([nH]c5ccccc45)[C@@H]3C[C@H]12,T/C,"dose: 12.5 mg/kg/injection, schedule: Q01DX007 (ip), vehicle: carboxymethylcellulose (CMC)",110 % of control
same,T/C,"dose: 25.0 mg/kg/injection, schedule: Q01DX007 (ip), vehicle: carboxymethylcellulose (CMC)",83 % of control
same,T/C,"dose: 50.0 mg/kg/injection, schedule: Q01DX007 (ip), vehicle: carboxymethylcellulose (CMC)",84 % of control
same,T/C,"dose: 100.0 mg/kg/injection, schedule: Q01DX007 (ip), vehicle: carboxymethylcellulose (CMC)",98 % of control
C[C@]12C=CC(=O)C=C1CC[C@@H]1[C@@H]2[C@@H](O)C[C@@]2(C)[C@H]1CC[C@]2(O)C(=O)COC(=O)C1CCCC1,T/C,"dose: 3.5 mg/kg/injection, schedule: Q#A X014 (sc), vehicle: water",68 % of control
same,T/C,"dose: 5.0 mg/kg/injection, schedule: Q#A X014 (sc), vehicle: water",35 % of control
same,T/C,"dose: 7.5 mg/kg/injection, schedule: Q#A X014 (sc), vehicle: water",49 % of control
same,T/C,"dose: 11.5 mg/kg/injection, schedule: Q#A X014 (sc), vehicle: water",47 % of control
same,T/C,"dose: 17.5 mg/kg/injection, schedule: Q#A X014 (sc), vehicle: water",32 % of control
CCCCn1cnc2c(=S)nc(N)[nH]c21,T/C,"dose: 1.65 mg/kg/injection, schedule: Q#A X014 (ip), vehicle: methylcellulose (MC)",82 % of control
same,T/C,"dose: 2.5 mg/kg/injection, schedule: Q#A X014 (ip), vehicle: methylcellulose (MC)",93 % of control
same,T/C,"dose: 3.75 mg/kg/injection, schedule: Q#A X014 (ip), vehicle: methylcellulose (MC)",62 % of control
same,T/C,"dose: 5.5 mg/kg/injection, schedule: Q#A X014 (ip), vehicle: methylcellulose (MC)",49 % of control
CC(C)(C)C(=O)/C=C/c1ccc([N+](=O)[O-])cc1,T/C,"dose: 50.0 mg/kg/injection, schedule: Q#A X014 (ip), vehicle: methylcellulose (MC)",92 % of control
same,T/C,"dose: 187.5 mg/kg/injection, schedule: Q#A X014 (ip), vehicle: methylcellulose (MC)",70 % of control
O=C(N/N=C/C=C/c1ccccc1)[C@H](O)[C@@H](O)C(=O)N/N=C/C=C/c1ccccc1,T/C,"dose: 111.0 mg/kg/injection, schedule: Q#A X014 (ip), vehicle: saline",57 % of control
same,T/C,"dose: 166.5 mg/kg/injection, schedule: Q#A X014 (ip), vehicle: saline",40 % of control
same,T/C,"dose: 250.0 mg/kg/injection, schedule: Q#A X014 (ip), vehicle: saline",57 % of control
CC1(c2ccccc2)O[C@@H]2C[C@H]3[C@@H]4CCC5=CC(=O)C=C[C@]5(C)[C@@]4(F)[C@@H](O)C[C@]3(C)[C@]2(C(=O)CO)O1 (stereo partly drawn),T/C,"dose: 1.2 mg/kg/injection, schedule: Q01DX007 (sc), vehicle: steriod suspending solution",72 % of control
same,T/C,"dose: 1.7 mg/kg/injection, schedule: Q#A X014 (sc), vehicle: steriod suspending solution",70 % of control
same,T/C,"dose: 2.5 mg/kg/injection, schedule: Q01DX007 (sc), vehicle: steriod suspending solution",70 % of control
same,T/C,"dose: 2.6 mg/kg/injection, schedule: Q#A X014 (sc), vehicle: steriod suspending solution",32 % of control
same,T/C,"dose: 5.0 mg/kg/injection, schedule: Q01DX007 (sc), vehicle: steriod suspending solution",52 % of control
same,T/C,"dose: 6.0 mg/kg/injection, schedule: Q01DX007 (sc), vehicle: steriod suspending solution",63 % of control
same,T/C,"dose: 39.0 mg/kg/injection, schedule: Q01DX007 (sc), vehicle: steriod suspending solution",28 % of control
same,T/C,"dose: 50.0 mg/kg/injection, schedule: Q01DX007 (sc), vehicle: steriod suspending solution",14 % of control
same,T/C,"dose: 60.0 mg/kg/injection, schedule: Q01DX007 (sc), vehicle: steriod suspending solution",33 % of control
same,T/C,"dose: 100.0 mg/kg/injection, schedule: Q01DX007 (sc), vehicle: steriod suspending solution",7 % of control
